Read-outs that look alike come from different tables or passages of the source.
Key:
wheat LTP [1] = biological target: T1, wheat LTP (Triticum aestivum, UniProt P24296); test: CPA displacement assay (competitive, CPA as tracer); format: binding; conditions: for Ki: Cheng-Prusoff; for ΔG Wheat: ΔG = -RTln(Ki)
T1 construct: Intact protein (residues 1–90); from tissue; host or cells: wheat bran
T1 sequence (P24296 24-113): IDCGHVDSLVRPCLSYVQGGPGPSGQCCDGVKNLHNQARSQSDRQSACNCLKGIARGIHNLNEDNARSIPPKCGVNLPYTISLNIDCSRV
Description: (§1) Ligand binding was assessed using a fluorescence assay based on cis-parinaric acid originally described by Cooper et al.[22]. Fluorescence intensity was measured at 25 °C with a LS55 Luminescence Spectrometer (Perkin Elmer, Cambridge, UK) using a […] slit width for both excitation (λ = 320 nm) and emission (λ = 420 nm) and the measurement taken for no longer than 1.5–2s. CPA (3 mM in ethanol) was titrated by 1 μL injections into 1 mL of LTP solutions (5 μM in 50 mM phosphate buffer pH 7.5) in a stepwise manner. Binding curves were fitted with GraphPad Prism using the rectangular hyperbolic function of Hill’s equation. For non-fluorescent ligands, a competitive assay was developed using CPA as a tracer ligand. CPA concentrations close to the calculated Kd of each LTP[49][50] (at either 1 or 0.5 μM CPA for peach LTP and 2 or 1 μM CPA for wheat LTP in 50 mM phosphate buffer pH 7.5 or pH 2.5, 150 mM NaCl, respectively) were used. After equilibrating for 2–3 min with gentle mixing, the competing non-fluorescent ligands (1 mM of palmitic acid, 16-OH palmitic acid, 12-OH stearic acid, linoleic acid or 1-palmitoyl–sn–glycerol–3–phosphatadyl choline (PC) ethanol) were titrated into the LTP solution in 1 μL aliquots. The resulting data were fitted using a sigmoidal curve-fitting logarithm in GraphPad Prism from which the concentration able to displace 50% of the CPA (IC50) was calculated. Ki values were calculated according to Cheng-Prusoff equation[51].

peach LTP [2] = biological target: T2, peach LTP (Prunus persica, UniProt P81402, A9S/H76S); test: as above; format: binding; conditions: for ΔG Peach: ΔG = -RTln(Ki)
T2 construct: Peach LTP was purified from the skin of peach fruits; from tissue; host or cells: skin of peach fruits
Description: as §1

wheat LTP [3] = biological target: T3, wheat LTP (Triticum aestivum, UniProt P24296); test: CPA fluorescence titration, direct binding
T3 construct: Intact protein (residues 1–90); from tissue; host or cells: wheat bran
T3 sequence (P24296 24-90 limits assumed): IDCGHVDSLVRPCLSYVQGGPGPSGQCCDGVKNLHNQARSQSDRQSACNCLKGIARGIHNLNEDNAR
Description: as §1

peach LTP [4] = biological target: T4, peach LTP (Prunus persica, UniProt P81402); test: CPA fluorescence titration, direct binding
T4 construct: Peach LTP was purified from the skin of peach fruits; from tissue; host or cells: skin of peach fruits
T4 sequence (P81402 1-91): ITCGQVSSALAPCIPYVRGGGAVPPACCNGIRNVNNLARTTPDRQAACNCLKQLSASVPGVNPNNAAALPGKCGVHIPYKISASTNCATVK
Description: as §1

[5] = 50 mM phosphate, pH 7.5, displacement of 2 μM CPA
[6] = 150 mM NaCl, pH 2.5, displacement of 1 μM CPA
[7] = 50 mM phosphate, pH 7.5, Cheng-Prusoff, read-out: Ki Peach
[8] = 50 mM phosphate, pH 7.5, displacement of 1 μM CPA, read-out: IC50 Peach
[9] = 150 mM NaCl, pH 2.5, Cheng-Prusoff, read-out: Ki Peach
[10] = 150 mM NaCl, pH 2.5, displacement of 0.5 μM CPA, read-out: IC50 Peach

T2 sequence (P81402 whole entry A9S/H76S): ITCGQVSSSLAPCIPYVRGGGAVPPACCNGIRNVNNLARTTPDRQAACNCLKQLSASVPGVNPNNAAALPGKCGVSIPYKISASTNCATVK

Compound	Ki (wheat LTP [1]; 50 mM phosphate, pH 7.5) [µM]	IC50 (wheat LTP [1]; [5]) [µM]	ΔG Wheat (wheat LTP [1]; 50 mM phosphate, pH 7.5) [kcal/mol]	IC50 (peach LTP [2]) [µM]	Ki (peach LTP [2]) [µM]	ΔG Peach (peach LTP [2]; 50 mM phosphate, pH 7.5) [kcal/mol]	Kd (wheat LTP [3]; 50 mM phosphate, pH 7.5) [µM]	Kd (wheat LTP [3]; 150 mM NaCl, pH 2.5) [µM]	Kd (peach LTP [4]; 50 mM phosphate, pH 7.5) [µM]	Kd (peach LTP [4]; 150 mM NaCl, pH 2.5) [µM]	Ki (wheat LTP [1]; 150 mM NaCl, pH 2.5) [µM]	IC50 (wheat LTP [1]; [6]) [µM]	ΔG Wheat (wheat LTP [1]; 150 mM NaCl, pH 2.5) [kcal/mol]	Ki (peach LTP [2]; [7]) [µM]	IC50 (peach LTP [2]; [8]) [µM]	Ki (peach LTP [2]; [9]) [µM]	IC50 (peach LTP [2]; [10]) [µM]	ΔG Peach (peach LTP [2]; 150 mM NaCl, pH 2.5) [kcal/mol]
CCCCCCCCCCCCCCCC(=O)O [Palmitic acid, palmitic acid]	3.6 ± 0.1	5.2 ± 0.1	7.41	1.4 ± 0.1	0.7 ± 0.03	8.39	–	–	–	–	–	–	–	–	–	–	–	–
CC\C=C/C=C/C=C/C=C\CCCCCCCC(=O)O [CPA, cis-parinaric acid]	–	–	–	–	–	–	4.5 ± 0.2	1.2 ± 0.1	1 ± 0.02	0.6 ± 0.1	–	–	–	–	–	–	–	–
CCCCC/C=C\C/C=C\CCCCCCCC(=O)O [Linoleic acid, linoleic acid]	5.3 ± 0.02	7.6 ± 0.03	7.19	1.6 ± 0.1	0.8 ± 0.04	8.29	–	–	–	–	–	–	–	–	–	–	–	–
1-palmitoyl–sn–glycerol–3–phosphatadyl choline [Phosphatidyl choline]	4.6 ± 0.1	6.7 ± 0.1	7.27	–	–	8.13	–	–	–	–	2.8 ± 0.1	5.3 ± 0.1	7.55	1.1 ± 0.02	2.2 ± 0.03	1 ± 0.1	1.8 ± 0.1	8.17
CCCCCCCCCCCCCCCC(=O)OC[C@@H](O)COP(=O)([O-])OCC[N+](C)(C)C [Phosphatidyl choline (vesicular), 1-palmitoyl–sn–glycerol–3–phosphatadyl choline]	3.9 ± 0.1	5.6 ± 0.1	7.37	–	–	8.35	–	–	–	–	3.6 ± 0.1	6.8 ± 0.2	7.41	0.7 ± 0.04	1.5 ± 0.1	0.8 ± 0.1	1.5 ± 0.1	8.29

Source: article PMC4960534, “Ligand binding to an Allergenic Lipid Transfer Protein Enhances Conformational Flexibility resulting in an Increase in Susceptibility to Gastroduodenal Proteolysis” (Scientific Reports, 2016)
